Peptide text beside a SMILES is read from it. * marks the point of attachment. AMC = Cc1cc(=O)oc2cc(N*)ccc12; Cbz = O=C(OCc1ccccc1)*
Assays:
Test in all cases: fluorescence of released AMC
Format in all cases: biochemical
Conditions in all cases: pH 6.0, 30 °C, 10 mM L-cysteine, 10 mM EDTA, 0.01% Brij35
[1] = biological target: T1, HvPap-6 (Hordeum vulgare, UniProt B4ESE8)
T1 construct: gene pap-6; propeptide printed as A25-E131

[2] = biological target: T2, HvPap-4 (Hordeum vulgare, UniProt B4ESE6)
T2 construct: gene pap-4; propeptide printed as R25-D134
T2 sequence (B4ESE6 entry or part of it): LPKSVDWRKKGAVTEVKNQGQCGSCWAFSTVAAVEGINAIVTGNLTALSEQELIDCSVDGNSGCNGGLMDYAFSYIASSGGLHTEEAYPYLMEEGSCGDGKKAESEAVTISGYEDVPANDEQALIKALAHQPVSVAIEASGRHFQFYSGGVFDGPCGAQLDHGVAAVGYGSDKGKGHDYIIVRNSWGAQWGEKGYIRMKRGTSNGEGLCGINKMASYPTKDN

[3] = biological target: T3, HvPap-16 (Hordeum vulgare, UniProt B4ESF4)
T3 construct: gene pap-16; the propeptide cloning list prints HvPap-17 (A23-V156) instead of HvPap-16
T3 sequence (B4ESF4 entry or part of it): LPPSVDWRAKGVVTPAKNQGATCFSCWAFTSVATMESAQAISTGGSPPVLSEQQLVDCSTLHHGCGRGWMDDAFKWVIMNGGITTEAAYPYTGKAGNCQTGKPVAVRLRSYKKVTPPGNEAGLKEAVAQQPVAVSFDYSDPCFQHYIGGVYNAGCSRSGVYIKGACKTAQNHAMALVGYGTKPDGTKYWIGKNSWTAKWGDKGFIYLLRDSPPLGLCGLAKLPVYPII

[4] = biological target: T4, BovCathB (Bos taurus, UniProt P07688)
T4 construct: gene CTSB; commercial enzyme (Calbiochem)

T1 sequence (B4ESE8 entry or part of it): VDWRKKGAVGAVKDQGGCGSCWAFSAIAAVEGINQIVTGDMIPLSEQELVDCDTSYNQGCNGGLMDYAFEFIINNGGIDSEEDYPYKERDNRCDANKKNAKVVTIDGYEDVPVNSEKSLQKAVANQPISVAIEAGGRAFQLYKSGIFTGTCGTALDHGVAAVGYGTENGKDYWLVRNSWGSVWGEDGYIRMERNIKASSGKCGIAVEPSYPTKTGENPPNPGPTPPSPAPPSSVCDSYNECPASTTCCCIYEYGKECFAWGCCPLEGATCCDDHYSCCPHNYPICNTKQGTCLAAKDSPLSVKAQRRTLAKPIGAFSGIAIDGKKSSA

| SMILES | fluorescence of released AMC [1] | fluorescence of released AMC [2] | fluorescence of released AMC [3] | fluorescence of released AMC [4] |
| --- | --- | --- | --- | --- |
| Cc1cc(=O)oc2cc(NC(=O)[C@H](CCCNC(=N)N)NC(=O)[C@H](Cc3ccccc3)NC(=O)OCc3ccccc3)ccc12 [Z-FR-AMC] (Cbz-Phe-Arg-{AMC}) | Z-FR-AMC (for cathepsin L) or Z-RR-AMC (for cathepsin B) fluorescent substrates were added | Z-FR-AMC (for cathepsin L) or Z-RR-AMC (for cathepsin B) fluorescent substrates were added | Z-FR-AMC (for cathepsin L) or Z-RR-AMC (for cathepsin B) fluorescent substrates were added |  |
| Cc1cc(=O)oc2cc(NC(=O)[C@H](CCCNC(=N)N)NC(=O)[C@H](CCCNC(=N)N)NC(=O)OCc3ccccc3)ccc12 [Z-RR-AMC] (Cbz-Arg-Arg-{AMC}) |  |  |  | Z-FR-AMC (for cathepsin L) or Z-RR-AMC (for cathepsin B) fluorescent substrates were added |

From publication PMC3355106, “Structural Basis for Specificity of Propeptide-Enzyme Interaction in Barley C1A Cysteine Peptidases” (PLoS ONE, 2012)
